Experiments:
Type in all cases: in vivo
Poa annua (POAAN) [1] = assay: Herbicidal post-emergence action (Table B3); conditions: rated visually after about 3 weeks, 100% = plants have died, 0% = like control plants
Protocol: (§1) Seeds of mono- and dicotyledonous weed plants were placed in plastic pots in sandy loam soil (doubly sown with in each case one species of mono- or dicotyledonous weed plants per pot), covered with soil and cultivated in a greenhouse under controlled growth conditions. 2 to 3 weeks after sowing, the test plants were treated at the one-leaf stage. The compounds of the invention, formulated in the form of wettable powders (WP) or as emulsion concentrates (EC), were applied onto the green parts of the plants as aqueous suspension or emulsion with addition of 0.5% additive at a water application rate of 600 liters per hectare (converted). After the test plants had been kept in the greenhouse under optimum growth conditions for about 3 weeks, the activity of the preparations was rated visually in comparison to untreated controls. For example, 100% activity=the plants have died, 0% activity=like control plants. Tables B1 to B12 below show the effects of selected compounds of the general formula (I) according to Table 1 on various harmful plants and an application rate corresponding to 1280 or 320 g/ha, which were obtained by the experimental procedure mentioned above.

[2] = system: Amaranthus retroflexus (AMARE); assay: Herbicidal post-emergence action (Table B6); conditions: visual rating about 3 weeks after treatment, 100% = plants have died, 0% = like control plants
Protocol: as §1

Stellaria media (STEME) [3] = assay: Herbicidal post-emergence action (Table B8); conditions: visual rating about 3 weeks after treatment, 100% = plants have died, 0% = like control plants
Protocol: as §1

Poa annua (POAAN) [4] = assay: Herbicidal pre-emergence action, test C (Table C3); conditions: visual scoring after about 3 weeks, 100% = plants have died, 0% = like control plants
Source text: (§2) Seeds of mono- and dicotyledonous weed plants were placed in plastic pots in sandy loam soil (doubly sown with one species each of mono- or dicotyledonous weed plants per pot) and covered with soil. The compounds of the invention, formulated in the form of wettable powders (WP) or as emulsion concentrates (EC), were then applied onto the surface of the covering soil as aqueous suspension or emulsion with addition of 0.5% additive at a water application rate of 600 liters per hectare (converted). After the treatment, the pots were placed in a greenhouse and kept under good growth conditions for the test plants. After about 3 weeks, the effect of the preparations was scored visually in comparison with untreated controls as percentages. For example, 100% activity=the plants have died, 0% activity=like control plants. Tables C1 to C12 below show the effects of selected compounds of the general formula (I) according to Table 1 on various harmful plants and an application rate corresponding to 1280 or 320 g/ha, which were obtained by the experimental procedure mentioned above.

Setaria viridis (SETVI) = assay: Herbicidal pre-emergence action, test C (Table C4); conditions: visual scoring after about 3 weeks, 100% = plants have died, 0% = like control plants
Source text: as §2

[5] = system: Abutilon theophrasti (ABUTH); assay: Herbicidal pre-emergence action, test C (Table C5); conditions: visual scoring after about 3 weeks, 100% = plants have died, 0% = like control plants
Source text: as §2

[6] = system: Amaranthus retroflexus (AMARE); assay: Herbicidal pre-emergence action, test C (Table C6); conditions: visual scoring after about 3 weeks, 100% = plants have died, 0% = like control plants
Source text: as §2

[7] = system: Matricaria inodora (MATIN); assay: Herbicidal pre-emergence action, test C (Table C7); conditions: dosage 1280 g/ha; visual scoring after about 3 weeks; 100% = plants have died, 0% = like control plants
Source text: as §2

Stellaria media (STEME) [8] = assay: Herbicidal pre-emergence action, test C (Table C8); conditions: visual scoring after about 3 weeks, 100% = plants have died, 0% = like control plants
Source text: as §2

[9] = system: harmful plants ABUTH, AMARE, ECHCG, LOLRI, MATIN, POAAN, SETVI, STEME, ALOMY, DIGSA, KCHSC and VERPE; assay: Herbicidal post-emergence action, summary of Tables B1-B12; conditions: application rate of 1280 or 320 g of active ingredient per hectare; summary in words
Protocol: as §1, with “controls.” for “controls. For example, 100% activity=the plants have died, 0% activity=like control plants. Tables B1 to B12 below show the effects of selected compounds of the general formula (I) according to Table 1 on various harmful plants and an application rate corresponding to 1280 or 320 g/ha, which were obtained by the experimental procedure mentioned above.”
(§3) For example, 100% activity=the plants have died, 0% activity=like control plants.
Tables B1 to B12 below show the effects of selected compounds of the general formula (I) according to Table 1 on various harmful plants and an application rate corresponding to 1280 or 320 g/ha, which were obtained by the experimental procedure mentioned above.
As the results of Tables B1-B12 show, compounds no.

[10] = system: harmful plants ABUTH, AMARE, ECHCG, LOLRI, MATIN, POAAN, SETVI, STEME, ALOMY, DIGSA, KCHSC and VERPE; assay: Herbicidal pre-emergence action (test C), summary of Tables C1-C12; conditions: application rate of 1280 or 320 g of active ingredient per hectare; summary in words
Source text: as §2, with “percentages.” for “percentages. For example, 100% activity=the plants have died, 0% activity=like control plants. Tables C1 to C12 below show the effects of selected compounds of the general formula (I) according to Table 1 on various harmful plants and an application rate corresponding to 1280 or 320 g/ha, which were obtained by the experimental procedure mentioned above.”
as §3
Tables C1 to C12 below show the effects of selected compounds of the general formula (I) according to Table 1 on various harmful plants and an application rate corresponding to 1280 or 320 g/ha, which were obtained by the experimental procedure mentioned above.
As the results of Tables C1-C12 show, compounds no.

[11] = system: Abutilon theophrasti (ABUTH); assay: Herbicidal post-emergence action (Table B5); conditions: rated visually after about 3 weeks, 100% = plants have died, 0% = like control plants
Protocol: as §1

Veronica persica (VERPE) [12] = assay: Herbicidal post-emergence action (Table B12); conditions: visual rating about 3 weeks after treatment, 100% = plants have died, 0% = like control plants
Protocol: as §1

Veronica persica (VERPE) [13] = assay: Herbicidal pre-emergence action, test C (Table C12); conditions: dosage 1280 g/ha, visual scoring vs untreated controls
Source text: as §2

| SMILES | Post-emergence action against Poa annua (POAAN) (Poa annua (POAAN) [1]; 1280 g/ha) | Post-emergence action against Amaranthus retroflexus (AMARE) ([2]; dosage 320 g/ha) | Post-emergence action against Amaranthus retroflexus (AMARE) ([2]; dosage 1280 g/ha) | Post-emergence action against Stellaria media (STEME) (Stellaria media (STEME) [3]; dosage 1280 g/ha) | Pre-emergence action against Poa annua (POAAN) (Poa annua (POAAN) [4]; dosage 1280 g/ha) | Pre-emergence action against Setaria viridis (SETVI) (Setaria viridis (SETVI); dosage 1280 g/ha) | Pre-emergence action against Abutilon theophrasti (ABUTH) ([5]; dosage 1280 g/ha) | Pre-emergence action against Amaranthus retroflexus (AMARE) ([6]; dosage 320 g/ha) | Pre-emergence action against Amaranthus retroflexus (AMARE) ([6]; dosage 1280 g/ha) | Pre-emergence action against Stellaria media (STEME) (Stellaria media (STEME) [8]; dosage 320 g/ha) | Pre-emergence action against Stellaria media (STEME) (Stellaria media (STEME) [8]; dosage 1280 g/ha) | herbicidal activity against the harmful plants of Tables B1-B12 in post-emergence treatment [9] | herbicidal activity against the harmful plants of Tables C1-C12 in pre-emergence treatment [10] | Post-emergence action against Veronica persica (VERPE) (Veronica persica (VERPE) [12]; dosage 1280 g/ha) | further results |
| --- | --- | --- | --- | --- | --- | --- | --- | --- | --- | --- | --- | --- | --- | --- | --- |
| N#Cc1ccc(Oc2cccc(F)c2-c2cc(C(F)(F)F)on2)nc1 [Example 1-3] | 100% | 100% | 100% | 90% | 90% | 100% | 100% | 100% | 100% | 90% | 100% | very good herbicidal activity | very good herbicidal activity | – | Pre-emergence action against Setaria viridis (SETVI) (Setaria viridis (SETVI); dosage 320 g/ha): 100%; Pre-emergence action against Abutilon theophrasti (ABUTH) ([5]; dosage 320 g/ha): 90%; Pre-emergence action against Matricaria inodora (MATIN) [7]: 90% |
| Fc1cccc(Oc2ncc(Cl)cc2Cl)c1-c1cc(C(F)(F)F)on1 [Example 1-4] | – | – | – | 100% | – | – | – | – | 90% | – | – | very good herbicidal activity | very good herbicidal activity | – | – |
| Fc1cccc(Oc2ccc(Cl)cn2)c1-c1cc(C(F)F)on1 [Example 1-9] | 100% | 100% | 100% | 100% | 100% | 100% | 100% | 100% | 100% | 100% | 100% | very good herbicidal activity | very good herbicidal activity | – | Post-emergence action against Poa annua (POAAN) (Poa annua (POAAN) [1]; 320 g/ha): 100%; Post-emergence action against Abutilon theophrasti (ABUTH) ([11]; 320 g/ha): 100%; Post-emergence action against Abutilon theophrasti (ABUTH) ([11]; 1280 g/ha): 100%; Post-emergence action against Stellaria media (STEME) (Stellaria media (STEME) [3]; dosage 320 g/ha): 100%; Pre-emergence action against Poa annua (POAAN) (Poa annua (POAAN) [4]; dosage 320 g/ha): 100%; Pre-emergence action against Matricaria inodora (MATIN) [7]: 90% |
| Fc1cccc(Oc2ncc(C(F)(F)F)cc2Cl)c1-c1cc(C(F)F)no1 [Example 1-22] | 100% | – | – | – | 100% | 90% | – | – | 100% | 90% | 100% | very good herbicidal activity | very good herbicidal activity | – | Post-emergence action against Poa annua (POAAN) (Poa annua (POAAN) [1]; 320 g/ha): 100%; Post-emergence action against Abutilon theophrasti (ABUTH) ([11]; 1280 g/ha): 100% |
| Cc1ccc(-c2cc(C(F)F)no2)c(Oc2ncc(Cl)cc2Cl)c1 [Example 1-28] | 90% | 90% | 100% | 100% | – | 90% | – | – | – | – | 90% | very good herbicidal activity | very good herbicidal activity | 90% | Pre-emergence action against Setaria viridis (SETVI) (Setaria viridis (SETVI); dosage 320 g/ha): 90% |
| Cc1ccc(-c2cc(C(F)F)no2)c(Oc2ncccc2F)c1 [Example 1-33] | – | – | – | – | 90% | 100% | 90% | – | – | 90% | 100% | very good herbicidal activity | very good herbicidal activity | 100% | Post-emergence action against Veronica persica (VERPE) (Veronica persica (VERPE) [12]; dosage 320 g/ha): 90%; Pre-emergence action against Veronica persica (VERPE) (Veronica persica (VERPE) [13]): 90% |
| Cn1nc(-c2cc(F)ccc2Oc2ccc(Cl)cn2)cc1C(F)F [Example 1-65] | – | 100% | 100% | – | 100% | – | – | 90% | 100% | – | – | very good herbicidal activity | very good herbicidal activity | 100% | Post-emergence action against Veronica persica (VERPE) (Veronica persica (VERPE) [12]; dosage 320 g/ha): 100% |

From US12052991B2, “Substituted pyridinyloxybenzenes and salts thereof and use thereof as herbicidal agents” (Bayer Aktiengesellschaft, priority 2018, dated 2024)
